From ChEMBL document CHEMBL4354787, “Inhibitors of inosine 5'-monophosphate dehydrogenase as emerging new generation antimicrobial agents” (Medchemcomm, 2019)

Assays:
[1] = Inhibition of Francisella tularensis IMPDH expressed in Escherichia coli BL21(DE3) deletion in guaB gene using IMP as substrate preincubated for 10 mins followed by substrate addition in presence of NAD by spectrophotometer
[2] = molecular target: Inosine-5'-monophosphate dehydrogenase (Mycobacterium tuberculosis (strain ATCC 25618 / H37Rv)) (UniProt P9WKI7); assay: Inhibition of Mycobacterium tuberculosis H37Rv IMPDH2 at 1 uM using IMP as substrate incubated for 20 mins in presence of NAD by UV spectrophotometric analysis relative to control
[3] = Inhibition of Helicobacter pylori IMPDH using IMP as substrate preincubated for 10 mins followed by addition of substrate and measured after 45 mins in presence of NAD by fluorescence based assay
[4] = Inhibition of Mycobacterium tuberculosis IMPDH2
[5] = Inhibition of Helicobacter pylori IMPDH
[6] = molecular target: Inosine-5'-monophosphate dehydrogenase 2 (Homo sapiens) (UniProt P12268); assay: Inhibition of human IMPDH2 relative to control; settings: concentration not given here
Sequence of Inosine-5'-monophosphate dehydrogenase 2 (Homo sapiens) (P12268 2-514 limits assumed): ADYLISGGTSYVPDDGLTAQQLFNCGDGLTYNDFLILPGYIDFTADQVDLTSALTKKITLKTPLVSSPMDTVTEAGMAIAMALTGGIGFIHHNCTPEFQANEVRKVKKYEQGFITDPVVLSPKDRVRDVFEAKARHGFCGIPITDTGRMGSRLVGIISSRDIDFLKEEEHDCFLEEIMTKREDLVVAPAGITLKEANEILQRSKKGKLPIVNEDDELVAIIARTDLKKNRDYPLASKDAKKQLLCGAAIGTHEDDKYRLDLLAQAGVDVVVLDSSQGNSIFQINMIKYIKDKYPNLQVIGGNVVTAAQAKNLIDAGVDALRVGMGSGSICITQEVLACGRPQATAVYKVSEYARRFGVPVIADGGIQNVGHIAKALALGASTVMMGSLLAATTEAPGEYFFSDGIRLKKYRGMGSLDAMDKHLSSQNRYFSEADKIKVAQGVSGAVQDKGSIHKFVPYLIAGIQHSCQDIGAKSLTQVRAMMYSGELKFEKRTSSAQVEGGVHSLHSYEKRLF

Sequence of Inosine-5'-monophosphate dehydrogenase (Mycobacterium tuberculosis (strain ATCC 25618 / H37Rv)) (P9WKI7 whole entry): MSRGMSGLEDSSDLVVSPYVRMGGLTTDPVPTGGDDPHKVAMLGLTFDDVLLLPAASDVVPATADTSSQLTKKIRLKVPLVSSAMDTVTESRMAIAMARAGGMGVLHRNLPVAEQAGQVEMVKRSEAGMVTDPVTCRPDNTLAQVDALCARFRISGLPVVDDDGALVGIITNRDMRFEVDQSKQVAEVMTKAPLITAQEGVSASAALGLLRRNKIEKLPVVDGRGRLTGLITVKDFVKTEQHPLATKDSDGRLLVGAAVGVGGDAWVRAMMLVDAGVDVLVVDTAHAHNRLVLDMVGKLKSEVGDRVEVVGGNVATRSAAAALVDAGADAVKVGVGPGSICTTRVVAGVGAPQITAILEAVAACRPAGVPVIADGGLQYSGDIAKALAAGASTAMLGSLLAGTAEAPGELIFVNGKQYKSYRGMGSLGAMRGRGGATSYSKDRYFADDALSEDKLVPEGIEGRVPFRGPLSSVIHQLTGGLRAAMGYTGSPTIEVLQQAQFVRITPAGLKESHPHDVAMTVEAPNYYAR

Structure (SMILES): C[C@H](Oc1cccc(Cl)c1Cl)C(=O)Nc1ccc2oc(-c3ccc(C(=O)O)cc3)nc2c1
- Ki [1]: 0.0155 µM

Structure (SMILES): O=C(Nc1ccc(Cl)c(Cl)c1)Nc1ccc(Br)cc1F
- inhibition [2]: > 90%

Structure (SMILES): COc1cccc(Cn2cc(COc3ccc(-c4nnc(C)o4)cc3)nn2)c1
- IC50 [3]: 4.06 µM

Structure (SMILES): Cc1ccc([N+](=O)[O-])cc1NC(=O)Nc1cccc(Cl)c1
- inhibition [2]: > 90%

Structure (SMILES): COc1c(C)c2c(c(O)c1C/C=C(\C)CCC(=O)O)C(=O)OC2 [MYCOPHENOLIC ACID]
- IC50 [4]: 27.2 µM

Structure (SMILES): CC(C(=O)Nc1ccc2c(c1)COC2=O)c1ccc(C(=O)c2ccccc2)cc1 (stereo not drawn)
- IC50 [4]: 6.2 µM

Structure (SMILES): O=C(Cn1cc(C(=O)Nc2cccnc2)c2ccccc21)Nc1ccc(Br)cc1
- IC50 [5]: 2.2 µM

Structure (SMILES): C[C@H](Oc1cccc2ccccc12)C(=O)Nc1ccc2oc(-c3ccncc3)nc2c1
- Ki [1]: 0.03 µM

Structure (SMILES): C[C@H](Oc1cccc(Cl)c1Cl)C(=O)Nc1ccc2oc(-c3ccc(C(=O)NO)cc3)nc2c1
- Ki [1]: 0.013 µM

Structure (SMILES): O=C(Cc1ccc(F)c2ccccc12)Nc1ccc2c(c1)COC2=O
- IC50 [4]: 3.2 µM
- inhibition [6]: < 0.1%

Structure (SMILES): C[C@H](Oc1cccc(Cl)c1Cl)C(=O)Nc1ccc2oc(-c3ccncc3)nc2c1
- Ki [1]: 0.022 µM

Structure (SMILES): O=C(Nc1cccc([N+](=O)[O-])c1)Nc1ccc(Cl)c(C(F)(F)F)c1
- inhibition [2]: > 90%
